From PubChem BioAssay AID256 (DTP/NCI, 2004)
Values joined by “and” are separate entries in the source; they are usually repeats but may differ in a detail not shown here. Equal values may be shown once. Toxic doses and inconclusive results are not listed.

System: CD2F1 mice, L1210 leukemia ip, survival T/C
Experiment: NCI In Vivo Anticancer Drug Screen. Data for tumor model L1210 Leukemia (intraperitoneal) in CD2F1 (CDF1) mice
Conditions: higher = longer survival
Procedure, shortened: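 Tumor-bearing mice (transplanted tumor) were split into treated and vehicle control groups, and the measured endpoint of each treated group was divided by that of its vehicle controls.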

[1] = endpoint: mean survival time, dose: 200.0 mg/kg/injection, schedule: Q04DX003 (ip), vehicle: saline with Tween-80
[2] = endpoint: mean survival time, dose: 100.0 mg/kg/injection, schedule: Q01DX001 (ip), vehicle: saline
[3] = endpoint: mean survival time, dose: 200.0 mg/kg/injection, schedule: Q01DX001 (ip), vehicle: saline
[4] = endpoint: mean survival time, dose: 400.0 mg/kg/injection, schedule: Q01DX001 (ip), vehicle: saline
[5] = endpoint: mean survival time, dose: 100.0 mg/kg/injection, schedule: Q04DX003 (ip), vehicle: saline with Tween-80
[6] = endpoint: mean survival time, dose: 400.0 mg/kg/injection, schedule: Q04DX003 (ip), vehicle: saline with Tween-80
[7] = endpoint: mean survival time, dose: 100.0 mg/kg/injection, schedule: Q04DX003 (ip), vehicle: saline
[8] = endpoint: mean survival time, dose: 200.0 mg/kg/injection, schedule: Q04DX003 (ip), vehicle: saline
[9] = endpoint: mean survival time, dose: 400.0 mg/kg/injection, schedule: Q04DX003 (ip), vehicle: saline

SMILES: CCCCCCCCOc1nccc(N)n1
- T/C (endpoint: mean survival time, dose: 18.75 mg/kg/injection, schedule: Q01DX001 (ip), vehicle: saline with Tween-80): 105 % of control
- T/C (endpoint: mean survival time, dose: 37.5 mg/kg/injection, schedule: Q01DX001 (ip), vehicle: saline with Tween-80): 100 % of control
- T/C (endpoint: mean survival time, dose: 75.0 mg/kg/injection, schedule: Q01DX001 (ip), vehicle: saline with Tween-80): 94 % of control

SMILES: COc1cc(OC)c(OC)cc1/C=c1\[nH]c(=O)/c(=C/c2cc(OC)c(OC)cc2OC)[nH]c1=O
- T/C (endpoint: mean survival time, dose: 3.13 mg/kg/injection, schedule: Q01DX009 (ip), vehicle: saline with Tween-80): 102 % of control
- T/C (endpoint: mean survival time, dose: 6.25 mg/kg/injection, schedule: Q01DX009 (ip), vehicle: saline with Tween-80): 90 % of control
- T/C (endpoint: mean survival time, dose: 12.5 mg/kg/injection, schedule: Q01DX009 (ip), vehicle: saline with Tween-80): 91 % of control
- T/C [1]: 87 % of control

SMILES: CC1(C)OC2C(C#N)OC(n3ccc(=O)[nH]c3=O)C2O1 (configuration not stated)
- T/C (endpoint: median survival time, dose: 21.88 mg/kg/injection, schedule: Q01DX005 (ip), vehicle: Klucel (hydroxypropylcellulose) (HPC)): 101 % of control
- T/C (endpoint: median survival time, dose: 43.75 mg/kg/injection, schedule: Q01DX005 (ip), vehicle: Klucel (hydroxypropylcellulose) (HPC)): 102 % of control
- T/C (endpoint: median survival time, dose: 87.5 mg/kg/injection, schedule: Q01DX005 (ip), vehicle: Klucel (hydroxypropylcellulose) (HPC)): 98 % of control
- T/C (endpoint: median survival time, dose: 175.0 mg/kg/injection, schedule: Q01DX005 (ip), vehicle: Klucel (hydroxypropylcellulose) (HPC)): 102 % of control

SMILES: O=P(O)(O)Cc1ccccc1-c1ccccc1
- T/C [2]: 93 % of control
- T/C [3]: 94 % of control
- T/C [4]: 100 % of control

SMILES: CC1=C(/C=C/C(C)=C/C=C/C(C)=C/C(=O)O)C(C)(C)CCC1
- T/C (endpoint: mean survival time, dose: 8.0 mg/kg/injection, schedule: Q01DX009 (ip), vehicle: saline with Tween-80): 100 % of control
- T/C (endpoint: mean survival time, dose: 16.0 mg/kg/injection, schedule: Q01DX009 (ip), vehicle: saline with Tween-80): 95 % of control
- T/C (endpoint: mean survival time, dose: 32.0 mg/kg/injection, schedule: Q01DX009 (ip), vehicle: saline with Tween-80): 95 % of control
- T/C (endpoint: mean survival time, dose: 64.0 mg/kg/injection, schedule: Q01DX009 (ip), vehicle: saline with Tween-80): 97 % of control
- T/C [5]: 105 % of control
- T/C (endpoint: mean survival time, dose: 128.0 mg/kg/injection, schedule: Q01DX009 (ip), vehicle: saline with Tween-80): 87 % of control
- T/C [1]: 100 % of control
- T/C [6]: 97 % of control

SMILES: Cc1ccccc1C(C)(C#N)Nc1ccccc1 (configuration not stated)
- T/C [5]: 101 % of control
- T/C [1]: 103 % of control
- T/C [6]: 104 % of control

SMILES: CCCN(CCC)S(=O)(=O)c1ccc(NC(=O)OC2CCCCC2)cc1
- T/C [2]: 93 % of control
- T/C [3]: 98 % of control
- T/C [4]: 97 % of control

SMILES: CN(Cc1ccc(Cl)cc1)N=Nc1ccc(C(=O)O)cc1
- T/C (endpoint: mean survival time, dose: 7.9 mg/kg/injection, schedule: Q01DX009 (ip), vehicle: other): 94 % of control
- T/C (endpoint: mean survival time, dose: 15.7 mg/kg/injection, schedule: Q01DX009 (ip), vehicle: other): 94 % of control
- T/C (endpoint: mean survival time, dose: 31.3 mg/kg/injection, schedule: Q01DX009 (ip), vehicle: other): 105 % of control
- T/C (endpoint: mean survival time, dose: 62.5 mg/kg/injection, schedule: Q01DX009 (ip), vehicle: other): 90 % of control
- T/C (endpoint: mean survival time, dose: 100.0 mg/kg/injection, schedule: Q01DX009 (ip), vehicle: other): 101 % of control
- T/C (endpoint: mean survival time, dose: 125.0 mg/kg/injection, schedule: Q01DX009 (ip), vehicle: other): 97 % of control
- T/C (endpoint: mean survival time, dose: 200.0 mg/kg/injection, schedule: Q01DX009 (ip), vehicle: other): 93 % of control

SMILES: CN(C)/N=C/c1ccccn1
- T/C (endpoint: mean survival time, dose: 25.0 mg/kg/injection, schedule: Q04DX003 (ip), vehicle: saline): 98 % of control
- T/C (endpoint: mean survival time, dose: 50.0 mg/kg/injection, schedule: Q04DX003 (ip), vehicle: saline): 95 % of control
- T/C [7]: 101 % of control
- T/C [8]: 120 % of control

SMILES: CCSC(C(O)C(O)C(O)C(O)CO)n1cnc2c(=S)nc[nH]c21 (configuration not stated)
- T/C (endpoint: mean survival time, dose: 25.0 mg/kg/injection, schedule: Q01DX005 (ip), vehicle: water): 94 % of control
- T/C (endpoint: mean survival time, dose: 50.0 mg/kg/injection, schedule: Q01DX005 (ip), vehicle: water): 97 % of control
- T/C (endpoint: mean survival time, dose: 100.0 mg/kg/injection, schedule: Q01DX005 (ip), vehicle: water): 96 % of control
- T/C (endpoint: mean survival time, dose: 177.0 mg/kg/injection, schedule: Q01DX009 (ip), vehicle: saline with Tween-80): 107 % of control
- T/C (endpoint: mean survival time, dose: 200.0 mg/kg/injection, schedule: Q01DX005 (ip), vehicle: water): 96 % of control
- T/C (endpoint: mean survival time, dose: 265.0 mg/kg/injection, schedule: Q01DX009 (ip), vehicle: saline with Tween-80): 102 % of control
- T/C (endpoint: mean survival time, dose: 600.0 mg/kg/injection, schedule: Q01DX009 (ip), vehicle: saline with Tween-80): 150 % of control

SMILES: CC(C)(C)C(=O)O
- T/C (endpoint: mean survival time, dose: 100.0 mg/kg/injection, schedule: Q01DX009 (ip), vehicle: saline): 107 % of control
- T/C [7]: 89 % of control
- T/C (endpoint: mean survival time, dose: 200.0 mg/kg/injection, schedule: Q01DX009 (ip), vehicle: saline): 94 % of control
- T/C [8]: 92 % of control
- T/C [9]: 93 % of control

SMILES: [Pd].[Pd].[S-]CC[S-].[S-]CC[S-].c1ccc([PH+](c2ccccc2)c2ccccc2)cc1.c1ccc([PH+](c2ccccc2)c2ccccc2)cc1
- T/C (endpoint: mean survival time, dose: 3.13 mg/kg/injection, schedule: Q04DX003 (ip), vehicle: distilled water + Tween-80): 106 % of control
- T/C (endpoint: mean survival time, dose: 6.25 mg/kg/injection, schedule: Q04DX003 (ip), vehicle: distilled water + Tween-80): 98 % of control
- T/C (endpoint: mean survival time, dose: 12.5 mg/kg/injection, schedule: Q04DX003 (ip), vehicle: distilled water + Tween-80): 95 % of control
- T/C (endpoint: mean survival time, dose: 25.0 mg/kg/injection, schedule: Q04DX003 (ip), vehicle: distilled water + Tween-80): 92 % of control
- T/C (endpoint: mean survival time, dose: 50.0 mg/kg/injection, schedule: Q04DX003 (ip), vehicle: distilled water + Tween-80): 95 % of control
- T/C (endpoint: mean survival time, dose: 100.0 mg/kg/injection, schedule: Q04DX003 (ip), vehicle: distilled water + Tween-80): 92 % of control
- T/C (endpoint: mean survival time, dose: 200.0 mg/kg/injection, schedule: Q04DX003 (ip), vehicle: distilled water + Tween-80): 93 % of control

SMILES: O=[N+]([O-])c1ccc(N/N=C\c2ccc3ccccc3n2)cc1
- T/C [7]: 106 % of control
- T/C [8]: 109 % of control
- T/C [9]: 101 % of control

SMILES: NC(CCl)=NCC1C2CC3CC(C2)CC1C3 (configuration not stated)
- T/C (endpoint: mean survival time, dose: 6.25 mg/kg/injection, schedule: Q04DX002 (ip), vehicle: saline): 96 % of control
- T/C (endpoint: mean survival time, dose: 12.5 mg/kg/injection, schedule: Q04DX002 (ip), vehicle: saline): 93 % of control
- T/C (endpoint: mean survival time, dose: 25.0 mg/kg/injection, schedule: Q04DX002 (ip), vehicle: saline): 90 % of control
- T/C (endpoint: mean survival time, dose: 50.0 mg/kg/injection, schedule: Q04DX002 (ip), vehicle: saline): 96 % of control
- T/C (endpoint: mean survival time, dose: 100.0 mg/kg/injection, schedule: Q01DX001 (ip), vehicle: Klucel (hydroxypropylcellulose) (HPC)): 107 % of control
- T/C (endpoint: mean survival time, dose: 200.0 mg/kg/injection, schedule: Q01DX001 (ip), vehicle: Klucel (hydroxypropylcellulose) (HPC)): 98 % of control

SMILES: O=C(Oc1cccc(OC(=O)c2ccccc2)c1)c1ccccc1
- T/C (endpoint: mean survival time, dose: 100.0 mg/kg/injection, schedule: Q01DX009 (ip), vehicle: saline with Tween-80): 100 % of control
- T/C (endpoint: mean survival time, dose: 200.0 mg/kg/injection, schedule: Q01DX009 (ip), vehicle: saline with Tween-80): 97 % of control
- T/C (endpoint: mean survival time, dose: 400.0 mg/kg/injection, schedule: Q01DX009 (ip), vehicle: saline with Tween-80): 95 % of control

SMILES: CC1(C)OCC2OC=CC(=O)C2O1 (configuration not stated)
- T/C (endpoint: median survival time, dose: 25.0 mg/kg/injection, schedule: Q01DX009 (ip), vehicle: suspension in saline): 94 % of control
- T/C (endpoint: median survival time, dose: 50.0 mg/kg/injection, schedule: Q01DX009 (ip), vehicle: suspension in saline): 103 % of control
- T/C (endpoint: median survival time, dose: 100.0 mg/kg/injection, schedule: Q01DX009 (ip), vehicle: suspension in saline): 101 % of control
- T/C (endpoint: median survival time, dose: 200.0 mg/kg/injection, schedule: Q01DX009 (ip), vehicle: suspension in saline): 97 % of control
- T/C (endpoint: median survival time, dose: 400.0 mg/kg/injection, schedule: Q01DX009 (ip), vehicle: suspension in saline): 104 % of control

SMILES: ClC1C2CCC(C2)C1(Cl)Cl (configuration not stated)
- T/C (endpoint: mean survival time, dose: 0.3 mg/kg/injection, schedule: Q01DX001 (ip), vehicle: saline with Tween-80): 100 % of control
- T/C (endpoint: mean survival time, dose: 0.6 mg/kg/injection, schedule: Q01DX001 (ip), vehicle: saline with Tween-80): 103 % of control
- T/C (endpoint: mean survival time, dose: 1.2 mg/kg/injection, schedule: Q01DX001 (ip), vehicle: saline with Tween-80): 102 % of control

SMILES: c1ccc(OCC2CO2)c(OCC2CO2)c1 (configuration not stated)
- T/C (endpoint: median survival time, dose: 25.0 mg/kg/injection, schedule: Q01DX009 (ip), vehicle: saline with Tween-80): 110 % of control and 111 % of control
- T/C (endpoint: median survival time, dose: 50.0 mg/kg/injection, schedule: Q01DX009 (ip), vehicle: saline with Tween-80): 113 % of control and 117 % of control
- T/C (endpoint: median survival time, dose: 200.0 mg/kg/injection, schedule: Q01DX009 (ip), vehicle: saline with Tween-80): 153 % of control and 168 % of control
- T/C (endpoint: median survival time, dose: 400.0 mg/kg/injection, schedule: Q01DX009 (ip), vehicle: saline with Tween-80): 104 % of control
